Patent publication US10588317B2, “Isoxazoline-substituted benzamides and analogues as insecticides” (priority 2015, dated 2020)

Legend:
Format in all cases: in vivo
[1] = test system: Thrips tabaci; assay: Thrips tabaci (onion thrips): feeding/contact activity; settings: 144 h, application rate 200 ppm, Thrips population of mixed ages, 6 days after infestation, read-out: mortality
Method: Sunflower leaf discs were placed on agar in 24-well microtiter plates and sprayed with aqueous test solutions prepared from 10'000 ppm DMSO stock solutions. After drying the leaf discs were infested with a Thrips population of mixed ages. The samples were assessed for mortality 6 days after infestation.

[2] = test system: Euschistus heros; assay: Euschistus heros (neotropical brown stink bug), sprayed soybean leaves; settings: 120 h, application rate 200 ppm, N2 nymphs, 5 days after infestation, read-out: effect in at least one of the two categories (mortality or growth inhibition)
Outline: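 Soybean leaves on agar sprayed with aqueous dilutions of DMSO stocks, dried, then infested with N2 nymphs. Mortality and growth inhibition scored against untreated samples 5 days after infestation; application rate 200 ppm.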

[3] = test system: Tetranychus urticae; assay: Tetranychus urticae (two-spotted spider mite): feeding/contact activity; settings: 192 h, application rate 200 ppm, mixed population (mobile stages), 8 days after infestation, read-out: mortality
Method: Bean leaf discs on agar in 24-well microtiter plates were sprayed with aqueous test solutions prepared from 10'000 ppm DMSO stock solutions. After drying the leaf discs were infested with a mite population of mixed ages. The samples were assessed for mortality on mixed population (mobile stages) 8 days after infestation.

[4] = test system: Plutella xylostella; assay: Plutella xylostella (diamond back moth), artificial diet; settings: 120 h, application rate 200 ppm, L2 larvae, 5 days after infestation, read-out: effect in at least one of the two categories (mortality or growth inhibition)
Outline: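 Artificial diet in 24-well plates treated with aqueous test solutions made from 10'000 ppm DMSO stocks, dried, then infested with L2 larvae (10 to 15 per well). Mortality and growth inhibition scored against untreated samples 5 days after infestation; activity cut-off at least 80% in either category at 200 ppm.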

[5] = test system: Spodoptera littoralis; assay: Spodoptera littoralis (Egyptian cotton leaf worm), uptake by lettuce roots from agar; settings: 144 h, read-out: effect in at least one of the three categories (mortality, anti-feeding, or growth inhibition)
Outline: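 Compound from 10'000 ppm DMSO stocks was mixed into agar, and lettuce grew on it for 7 days to take it up via roots. Cut leaves were infested with Spodoptera eggs; mortality, anti-feedant effect and growth inhibition scored 6 days later versus untreated samples.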

[6] = test system: Spodoptera littoralis; assay: Spodoptera littoralis (Egyptian cotton leaf worm), sprayed cotton leaf discs; settings: foliar, 72 h, application rate 200 ppm, L1 larvae, 3 days after infestation, read-out: control (mortality, anti-feeding effect, growth inhibition)
Outline: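 Cotton leaf discs on agar sprayed with aqueous test solutions made from 10'000 ppm DMSO stock; after drying, infested with five L1 larvae. Mortality, anti-feeding and growth inhibition scored versus untreated samples 3 days after infestation; control counted when any category exceeds untreated.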

[7] = test system: Diabrotica balteata; assay: Diabrotica balteata (corn root worm), sprayed maize sprouts; settings: 96 h, application rate 200 ppm, L2 larvae, 4 days after infestation, read-out: effect in at least one of the two categories (mortality or growth inhibition)
Outline: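 Maize sprouts on agar sprayed with aqueous dilutions of DMSO stocks, dried, then infested with L2 larvae (6–10 per well). Mortality and growth inhibition scored against untreated controls 4 days after infestation, at 200 ppm application rate.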

[8] = test system: Myzus persicae; assay: Myzus persicae (green peach aphid): feeding/contact activity; settings: 144 h, application rate 200 ppm, aphid population of mixed ages, 6 days after infestation, read-out: mortality
Method: Sunflower leaf discs were placed onto agar in a 24-well microtiter plate and sprayed with aqueous test solutions prepared from 10'000 ppm DMSO stock solutions. After drying, the leaf discs were infested with an aphid population of mixed ages. The samples were assessed for mortality 6 days after infestation.

Cc1cc(C2=NOC(c3cc(C(F)(F)F)cc(C(F)(F)F)c3)(C(F)(F)F)C2)ccc1C(=O)NC1CON(S(C)(=O)=O)C1 (stereo not drawn) [Compound A59]
≥ 80%: mortality at 200 ppm [1] | percent effect (mortality or growth inhibition) at 200 ppm [2] | mortality at 200 ppm [3] | percent effect (mortality or growth inhibition) at 200 ppm [4] | percent control (mortality, anti-feedant effect or growth inhibition) at 12.5 ppm [5] | mortality at 200 ppm [6] | percent effect (mortality or growth inhibition) at 200 ppm [7] | mortality at 200 ppm [8]

CCN(C)S(=O)(=O)N1C[C@@H](NC(=O)c2ccc(C3=NO[C@@](c4cc(Cl)cc(Cl)c4)(C(F)(F)F)C3)cc2C)CO1 [Compound A142]
≥ 80%: mortality at 200 ppm [1] | percent effect (mortality or growth inhibition) at 200 ppm [2] | mortality at 200 ppm [3] | percent effect (mortality or growth inhibition) at 200 ppm [4] | percent control (mortality, anti-feedant effect or growth inhibition) at 12.5 ppm [5] | mortality at 200 ppm [6] | percent effect (mortality or growth inhibition) at 200 ppm [7] | mortality at 200 ppm [8]

C=CCNS(=O)(=O)N1CC(NC(=O)c2ccc(C3=NO[C@@](c4cc(Cl)c(F)c(Cl)c4)(C(F)(F)F)C3)cc2C)CO1 (stereo partly drawn) [Compound A105]
≥ 80%: mortality at 200 ppm [1] | percent effect (mortality or growth inhibition) at 200 ppm [2] | mortality at 200 ppm [3] | percent effect (mortality or growth inhibition) at 200 ppm [4] | percent control (mortality, anti-feedant effect or growth inhibition) at 12.5 ppm [5] | mortality at 200 ppm [6] | percent effect (mortality or growth inhibition) at 200 ppm [7] | mortality at 200 ppm [8]

CCNS(=O)(=O)N1C[C@@H](NC(=O)c2ccc(C3=NO[C@@](c4cc(Cl)cc(C(F)(F)F)c4)(C(F)(F)F)C3)cc2Cl)CO1 [Compound A128]
≥ 80%: mortality at 200 ppm [1] | percent effect (mortality or growth inhibition) at 200 ppm [2] | mortality at 200 ppm [3] | percent effect (mortality or growth inhibition) at 200 ppm [4] | percent control (mortality, anti-feedant effect or growth inhibition) at 12.5 ppm [5] | mortality at 200 ppm [6] | percent effect (mortality or growth inhibition) at 200 ppm [7] | mortality at 200 ppm [8]

CCN(C)S(=O)(=O)N1C[C@@H](NC(=O)c2ccc(C3=NO[C@@](c4cc(Cl)cc(C(F)(F)F)c4)(C(F)(F)F)C3)cc2C)CO1 [Compound A141]
≥ 80%: mortality at 200 ppm [1] | percent effect (mortality or growth inhibition) at 200 ppm [2] | mortality at 200 ppm [3] | percent effect (mortality or growth inhibition) at 200 ppm [4] | percent control (mortality, anti-feedant effect or growth inhibition) at 12.5 ppm [5] | mortality at 200 ppm [6] | percent effect (mortality or growth inhibition) at 200 ppm [7] | mortality at 200 ppm [8]

Cc1cc(C2=NO[C@@](c3cc(Cl)c(Cl)c(Cl)c3)(C(F)(F)F)C2)ccc1C(=O)NC1CON(S(N)(=O)=O)C1 (stereo partly drawn) [Compound A35]
≥ 80%: mortality at 200 ppm [1] | percent effect (mortality or growth inhibition) at 200 ppm [2] | mortality at 200 ppm [3] | percent effect (mortality or growth inhibition) at 200 ppm [4] | percent control (mortality, anti-feedant effect or growth inhibition) at 12.5 ppm [5] | mortality at 200 ppm [6] | percent effect (mortality or growth inhibition) at 200 ppm [7] | mortality at 200 ppm [8]

CCNS(=O)(=O)N1C[C@@H](NC(=O)c2ccc(C3=NO[C@@](c4cc(Cl)c(Cl)c(Cl)c4)(C(F)(F)F)C3)cc2Cl)CO1 [Compound A125, 2-chloro-N-[(4R)-2-(ethylsulfamoyl)isoxazolidin-4-yl]-4-[(5S)-5-(3,4,5-trichlorophenyl)-5-(trifluoromethyl)-4H-isoxazol-3-yl]benzamide]
≥ 80%: mortality at 200 ppm [1] | percent effect (mortality or growth inhibition) at 200 ppm [2] | mortality at 200 ppm [3] | percent effect (mortality or growth inhibition) at 200 ppm [4] | percent control (mortality, anti-feedant effect or growth inhibition) at 12.5 ppm [5] | mortality at 200 ppm [6] | percent effect (mortality or growth inhibition) at 200 ppm [7] | mortality at 200 ppm [8]

Cc1cc(C2=NO[C@@](c3cccc(C(F)(F)F)c3)(C(F)(F)F)C2)ccc1C(=O)N[C@H]1CON(S(=O)(=O)N(C)C)C1 [Compound A111]
≥ 80%: mortality at 200 ppm [1] | percent effect (mortality or growth inhibition) at 200 ppm [2] | mortality at 200 ppm [3] | percent effect (mortality or growth inhibition) at 200 ppm [4] | percent effect (mortality, anti-feeding or growth inhibition) at 12.5 ppm ([5]; test rate 12.5 ppm, eggs, 6 days after infestation) | mortality at 200 ppm [6] | percent effect (mortality or growth inhibition) at 200 ppm [7] | mortality at 200 ppm [8]

C=CCN(C)S(=O)(=O)N1CC(NC(=O)c2ccc(C3=NO[C@@](c4cc(Cl)c(Cl)c(Cl)c4)(C(F)(F)F)C3)cc2C)CO1 (stereo partly drawn) [Compound A82, N-[2-[allyl(methyl)sulfamoyl]isoxazolidin-4-yl]-2-methyl-4-[(5S)-5-(3,4,5-trichlorophenyl)-5-(trifluoromethyl)-4H-isoxazol-3-yl]benzamide]
≥ 80%: mortality at 200 ppm [1] | percent effect (mortality or growth inhibition) at 200 ppm [2] | mortality at 200 ppm [3] | percent effect (mortality or growth inhibition) at 200 ppm [4] | percent control (mortality, anti-feedant effect or growth inhibition) at 12.5 ppm [5] | mortality at 200 ppm [6] | percent effect (mortality or growth inhibition) at 200 ppm [7] | mortality at 200 ppm [8]

CCN(C)S(=O)(=O)N1C[C@@H](NC(=O)c2ccc(C3=NO[C@@](c4cc(Cl)c(Cl)c(Cl)c4)(C(F)(F)F)C3)cc2Cl)CO1 [Compound A132, 2-chloro-N-[(4R)-2-[ethyl(methyl)sulfamoyl]isoxazolidin-4-yl]-4-[(5S)-5-(3,4,5-trichlorophenyl)-5-(trifluoromethyl)-4H-isoxazol-3-yl]benzamide]
≥ 80%: mortality at 200 ppm [1] | percent effect (mortality or growth inhibition) at 200 ppm [2] | mortality at 200 ppm [3] | percent effect (mortality or growth inhibition) at 200 ppm [4] | percent control (mortality, anti-feedant effect or growth inhibition) at 12.5 ppm [5] | mortality at 200 ppm [6] | percent effect (mortality or growth inhibition) at 200 ppm [7] | mortality at 200 ppm [8]

CCN(C)S(=O)(=O)N1C[C@@H](NC(=O)c2ccc(C3=NO[C@@](c4cc(Cl)cc(C(F)(F)F)c4)(C(F)(F)F)C3)cc2Cl)CO1 [Compound A130, 2-chloro-4-[(5S)-5-[3-chloro-5-(trifluoromethyl)phenyl]-5-(trifluoromethyl)-4H-isoxazol-3-yl]-N-[(4R)-2-[ethyl(methyl)sulfamoyl]isoxazolidin-4-yl]benzamide]
≥ 80%: mortality at 200 ppm [1] | percent effect (mortality or growth inhibition) at 200 ppm [2] | mortality at 200 ppm [3] | percent effect (mortality or growth inhibition) at 200 ppm [4] | percent control (mortality, anti-feedant effect or growth inhibition) at 12.5 ppm [5] | mortality at 200 ppm [6] | percent effect (mortality or growth inhibition) at 200 ppm [7] | mortality at 200 ppm [8]

Cc1cc(C2=NO[C@@](c3cc(Cl)cc(Cl)c3)(C(F)(F)F)C2)ccc1C(=O)N[C@H]1CON(S(C)(=O)=O)C1 [Compound A38]
≥ 80%: mortality at 200 ppm [1] | percent effect (mortality or growth inhibition) at 200 ppm [2] | mortality at 200 ppm [3] | percent effect (mortality or growth inhibition) at 200 ppm [4] | percent control (mortality, anti-feedant effect or growth inhibition) at 12.5 ppm [5] | mortality at 200 ppm [6] | percent effect (mortality or growth inhibition) at 200 ppm [7] | mortality at 200 ppm [8]
